The test concerns the target T1, CCR2 (Homo sapiens, UniProt P41597).
T1 construct: Membranes were prepared from THP-1 cells; endogenous in cells; host or cells: THP-1 (human acute monocytic leukaemia cells), membrane preparation
T1 sequence (P41597 1-360 isoform P41597-2): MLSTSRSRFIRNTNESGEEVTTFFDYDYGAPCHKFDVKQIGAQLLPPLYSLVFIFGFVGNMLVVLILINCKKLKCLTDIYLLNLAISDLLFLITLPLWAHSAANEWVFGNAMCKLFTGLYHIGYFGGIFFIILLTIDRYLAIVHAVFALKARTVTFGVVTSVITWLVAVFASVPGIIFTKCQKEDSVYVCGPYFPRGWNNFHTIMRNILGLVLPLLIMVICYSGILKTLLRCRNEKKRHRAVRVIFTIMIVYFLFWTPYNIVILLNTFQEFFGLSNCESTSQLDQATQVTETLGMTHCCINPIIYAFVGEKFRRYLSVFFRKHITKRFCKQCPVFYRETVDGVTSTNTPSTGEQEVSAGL
The test can be described thus: CCR2 receptor membrane binding assay ([125I]MCP-1, THP-1 membranes, SPA beads). The conditions noted are these: dissociation constant hKi; THP-1 cell membranes, [125I]MCP-1, bound radioactivity after 8 h. How it is done:
The above exemplary substances have been tested for binding to CCR2 using a binding assay as outlined herein below:
THP-1 cells (human acute monocytic leukaemia cells) were cultured under standardized conditions at 37° C. and 5% CO2 in a humidified incubator. THP-1 cells were cultivated in RPMI 1640 medium (Gibco 21875) containing 1% MEM-NEAA (Gibso 11140) 2 mM L-glutamine, 1.5 g/L sodium bicarbonate, 4.5 g/L glucose, 10 mM HEPES and 1.0 mM sodium pyruvate, 90%; 10% fetal calf serum (FCS Gibco 10500-064).
Membranes were prepared from THP-1 cells. THP-1 cells were centrifuged at 300×g at 4° C. for 10 min. The cell pellet was resuspendet in Phosphate Buffer Saline (PBS, including 10 μM Pefabloc and a protease inhibitor mix ‘complete’, Boehringer Mannheim (1 tablet/50 ml)), to a concentration of […]. The membrane preparation was performed by disrupting the cells by nitrogen […] (at 50 bar, for 1 h) in a “Nitrogen Bombe” (Parr Instrument). Cell debris was removed by centrifugation (800×g at 4° C., 1 min). The supernatant was centrifuged at 80000×g, 4° C. for 30 min to sediment the cell membranes. Usually 50 mg of protein (Bradford assay) were yielded from 1×10E9 cells. The membranes were resuspendet in 25 mM HEPES, 25 mM MgCl2, 1 mM CaCl2, 10% Glycerine for storage in aliquots at −80° C. in 25 mM HEPES, 25 mM MgCl2, 1 mM CaCl2, 10% Glycerine and stored at −80° C.
Receptor Membrane Binding Assay:
Perkin Elmer NEX 332 Jod 125 MCP-1, Stock: 2200 Ci/mmol solved in 2000 μl assay buffer, stored at −20° C. THP-1 membrane were adjusted with 25 mM HEPES, pH 7.2; 5 mM MgCl2; 0.5 mM CaCl2; 0.2% BSA assay buffer to a concentration of 2.5 μg/15 μl. Amersham Biosciences PVT-WGA Beads (RPNQ0001) were adjusted with assay buffer to a concentration of 0.24 mg/30 μl. For preparation of the membrane-bead-suspension membranes and beads were incubated for 30 min at RT under rotation (60 rpm) with a ratio of 1:2. Test compounds dissolved in 100% DMSO to a concentration of 10 mM and are further diluted with 100% DMSO to 1 mM. All additional compound dilutions were obtained with assay buffer, final 1% DMSO. Compounds, membrane-bead-suspension and [125I]MCP-1 (ca. 25000 cpm/10 μl) were incubated. Bound radioactivity was determined by scintillation counter after 8 h. Determination of affinity of test compounds (dissociation constant hKi) is calculated by iterative fitting of experimental data using the “easy sys” program, which is based on law of mass action (Schittkowski K. (1994), Numerische Mathematik, Vol. 68, 129-142).
For the compound `CO[C@H]1COCC[C@H]1NC1CCN(C(=O)c2ncnc(NC[C@@H]3CCC[C@H](c4ccc(C)cc4)O3)c2C)CC1` [Example 31], the Ki amounted to 276 nM.

On to `CO[C@H]1COCC[C@H]1NC1CCN(C(=O)c2ncnc(NC[C@@H]3CCC[C@H](c4cccc(C)c4)O3)c2C)CC1` [Example 32], for which the Ki is 333 nM.

Take `CO[C@@H]1COCC[C@@H]1NC1CCN(C(=O)c2ncnc(NC[C@@H]3CCC[C@H](c4cccc(C)c4)O3)c2C)CC1` [Example 33]: the Ki is 148 nM.

Consider `CO[C@H]1COCC[C@H]1NC1CCN(C(=O)c2nc(C)nc(NC[C@@H]3CCC[C@H](c4cccc(C)c4)O3)c2C)CC1` [Example 34], for which the Ki worked out at 63 nM.

As for `CO[C@@H]1COCC[C@@H]1NC1CCN(C(=O)c2nc(C)nc(NC[C@@H]3CCC[C@H](c4cccc(C)c4)O3)c2C)CC1` [Example 35], the Ki was determined as 96 nM.

As for `CO[C@H]1COCC[C@H]1NC1CCN(C(=O)c2ncnc(NC[C@@H]3CCC[C@H](c4ccc(C(F)(F)F)cc4)O3)c2C)CC1` [Example 36], the Ki was 51 nM.

Take `CO[C@@H]1COCC[C@@H]1NC1CCN(C(=O)c2ncnc(NC[C@@H]3CCC[C@H](c4ccc(C(F)(F)F)cc4)O3)c2C)CC1` [Example 37]: the Ki was 25 nM.

As for `CO[C@@H]1COCC[C@@H]1NC1CCN(C(=O)c2ncnc(NC[C@H]3CCC[C@@H](c4ccccc4)O3)c2C)CC1` [Example 38], the Ki stood at 6 nM.

Turning to `CO[C@@H]1COCC[C@@H]1NC1CCN(C(=O)c2ncnc(NC[C@@H]3CCC[C@H](c4ccccc4)O3)c2C)CC1` [Example 39], the Ki is 287 nM.

For the compound `CO[C@H]1COCC[C@H]1NC1CCN(C(=O)c2ncnc(NC[C@H]3CCC[C@@H](c4ccccc4)O3)c2C)CC1` [Example 40], the Ki stood at 26 nM.

Take `CO[C@@H]1COCC[C@@H]1NC1CCN(C(=O)c2ncnc(NC[C@H]3CCC[C@@H](c4ccc(Cl)cc4)O3)c2C)CC1` [Example 41]: the Ki was 3 nM.

As for `CO[C@H]1COCC[C@H]1NC1CCN(C(=O)c2ncnc(NC[C@H]3CCC[C@@H](c4ccc(Cl)cc4)O3)c2C)CC1` [Example 42], the Ki is 8 nM.

Take `CO[C@@H]1COCC[C@@H]1NC1CCN(C(=O)c2ncnc(NC[C@@H]3CCC[C@H](c4ccc(Cl)cc4)O3)c2C)CC1` [Example 43]: the Ki turned out to be 39 nM.

For the compound `CO[C@H]1COCC[C@H]1NC1CCN(C(=O)c2ncnc(NC[C@@H]3CCC[C@H](c4ccc(Cl)cc4)O3)c2C)CC1` [Example 44], the Ki turned out to be 166 nM.

As to `CO[C@@H]1COCC[C@@H]1NC1CCN(C(=O)c2ncnc(NC[C@@H]3CCC[C@H](c4cccc(C(F)(F)F)c4)O3)c2C)CC1` [Example 45], the Ki came out at 6 nM.

As to `CO[C@H]1COCC[C@H]1NC1CCN(C(=O)c2ncnc(NC[C@@H]3CCC[C@H](c4cccc(C(F)(F)F)c4)O3)c2C)CC1` [Example 46], the Ki is 302 nM.

Consider `CO[C@@H]1COCC[C@@H]1NC1CCN(C(=O)c2ncnc(NC[C@H]3CCC[C@@H](c4cccc(C(F)(F)F)c4)O3)c2C)CC1` [Example 47], for which the Ki is 94 nM.

Regarding `CO[C@H]1COCC[C@H]1NC1CCN(C(=O)c2ncnc(NC[C@H]3CCC[C@@H](c4cccc(C)c4)O3)c2C)CC1` [Example 48], the Ki was 7 nM.

For `CO[C@@H]1COCC[C@@H]1NC1CCN(C(=O)c2ncnc(NC[C@H]3CCC[C@@H](c4cccc(C)c4)O3)c2C)CC1` [Example 49], the Ki stood at 4 nM.

Take `CO[C@H]1COCC[C@H]1NC1CCN(C(=O)c2nc(C)nc(NC[C@H]3CCC[C@@H](c4cccc(C)c4)O3)c2C)CC1` [Example 50]: the Ki was 9 nM.

Regarding `CO[C@@H]1COCC[C@@H]1NC1CCN(C(=O)c2nc(C)nc(NC[C@H]3CCC[C@@H](c4cccc(C)c4)O3)c2C)CC1` [Example 51], the Ki was 8 nM.

For the compound `CO[C@@H]1COCC[C@@H]1NC1CCN(C(=O)c2ncnc(NC[C@H]3CCC[C@@H](c4ccc(C(F)(F)F)cc4)O3)c2C)CC1` [Example 52], the Ki came out at 1 nM.

Turning to `CO[C@H]1COCC[C@H]1NC1CCN(C(=O)c2ncnc(NC[C@H]3CCC[C@@H](c4ccc(C(F)(F)F)cc4)O3)c2C)CC1` [Example 53], the Ki was determined as 2 nM.

Regarding `CO[C@@H]1COCC[C@@H]1NC1CCN(C(=O)c2ccnc(NC[C@H]3CCC[C@@H](c4ccc(C)cc4)O3)c2C)CC1` [Example 53a], the Ki came to 7 nM.

As to `COc1nc(NC[C@H]2CCC[C@@H](c3ccc(C)cc3)O2)c(C)c(C(=O)N2CCC(N[C@H]3CCOC[C@H]3OC)CC2)n1` [Example 53aa], the Ki stood at 2 nM.

Consider `COc1nc(NC[C@H]2CCC[C@@H](c3ccc(C(F)(F)F)cc3)O2)c(C)c(C(=O)N2CCC(N[C@@H]3CCOC[C@@H]3OC)CC2)n1` [Example 53ab], for which the Ki came out at 1 nM.

With `COc1nc(NC[C@H]2CCC[C@@H](c3ccc(C(F)(F)F)cc3)O2)c(C)c(C(=O)N2CCC(N[C@H]3CCOC[C@H]3OC)CC2)n1` [Example 53ac], the Ki came to 0.8 nM.

Consider `COc1nc(NC[C@H]2CCC[C@@H](c3ccc(OC(F)(F)F)cc3)O2)c(C)c(C(=O)N2CCC(N[C@@H]3CCOC[C@@H]3OC)CC2)n1` [Example 53ad], for which the Ki is 0.3 nM.

Turning to `COc1nc(NC[C@H]2CCC[C@@H](c3ccc(OC(F)(F)F)cc3)O2)c(C)c(C(=O)N2CCC(N[C@H]3CCOC[C@H]3OC)CC2)n1` [Example 53ae], the Ki was found to be 0.4 nM.

As to `COc1nc(NC[C@H]2CCC[C@@H](c3ccccc3)O2)c(C)c(C(=O)N2CCC(N[C@@H]3CCOC[C@@H]3OC)CC2)n1` [Example 53af], the Ki was found to be 8 nM.

Regarding `COc1nc(NC[C@H]2CCC[C@@H](c3ccccc3)O2)c(C)c(C(=O)N2CCC(N[C@H]3CCOC[C@H]3OC)CC2)n1` [Example 53ag], the Ki turned out to be 5 nM.

Regarding `CO[C@H]1COCC[C@H]1NC1CCN(C(=O)c2nc(C(F)(F)F)nc(NC[C@H]3CCC[C@@H](c4ccccc4)O3)c2C)CC1` [Example 53ah], the Ki came out at 0.8 nM.

With `CO[C@@H]1COCC[C@@H]1NC1CCN(C(=O)c2nc(C(F)(F)F)nc(NC[C@H]3CCC[C@@H](c4ccccc4)O3)c2C)CC1` [Example 53ai], the Ki is 1.1 nM.

For `Cc1c(NC[C@H]2CCC[C@@H](c3ccc(OC(F)(F)F)cc3)O2)ncnc1C(=O)N1CCC(N[C@H]2CCOC[C@H]2F)CC1` [Example 53aj], the Ki was 0.7 nM.

With `Cc1c(NC[C@H]2CCC[C@@H](c3ccc(OC(F)(F)F)cc3)O2)ncnc1C(=O)N1CCC(N[C@@H]2CCOC[C@@H]2F)CC1` [Example 53ak], the Ki came out at 0.8 nM.

`CO[C@H]1COCC[C@H]1NC1CCN(C(=O)c2ncnc(NC[C@H]3CCC[C@@H](c4ccc(SC(F)(F)F)cc4)O3)c2C)CC1` [Example 53al]: the Ki is 0.4 nM.

For `CO[C@@H]1COCC[C@@H]1NC1CCN(C(=O)c2ncnc(NC[C@H]3CCC[C@@H](c4ccc(SC(F)(F)F)cc4)O3)c2C)CC1` [Example 53am], the Ki turned out to be 0.3 nM.

In the case of `CO[C@@H]1COCC[C@@H]1NC1CCN(C(=O)c2ncnc(NC[C@H]3CCC[C@@H](c4ccc(OC(F)(F)F)cc4)O3)c2C)CC1` [Example 53b], the Ki was 20 nM.

For `CO[C@H]1COCC[C@H]1NC1CCN(C(=O)c2ncnc(NC[C@@H]3CCC[C@H](c4ccc(OC(F)(F)F)cc4)O3)c2C)CC1` [Example 53c], the Ki came out at 98 nM.

For the compound `CO[C@@H]1COCC[C@@H]1NC1CCN(C(=O)c2ncnc(NC[C@@H]3CCC[C@H](c4ccc(OC(F)(F)F)cc4)O3)c2C)CC1` [Example 53d], the Ki was found to be 19 nM.

In the case of `CO[C@H]1COCC[C@H]1NC1CCN(C(=O)c2ccnc(NC[C@H]3CCC[C@@H](c4ccc(C)cc4)O3)c2C)CC1` [Example 53e], the Ki was 16 nM.

For the compound `CO[C@H]1COCC[C@H]1NC1CCN(C(=O)c2ncnc(NC[C@H]3CCC[C@@H](c4ccc(OC(F)(F)F)cc4)O3)c2C)CC1` [Example 53f], the Ki is 12 nM.

(Values after patent publication US8765949B2, “CCR2 receptor antagonists and uses thereof” (Boehringer Ingelheim International GmbH, priority 2009, dated 2014).)
